Results from patent US20070049564A1 (Wyeth, priority 2005, published 2007).
≈ marks a conversion by molar mass, not a printed value. Where two headings read alike, the source gives them in different places.

How the values were obtained:
E. coli GC 6465 = experiment: MIC, broth microdilution; details: Escherichia coli, GC6465, E. coli GC 6465
S. aureus GC 4536 = experiment: MIC, broth microdilution; details: Staphylococcus aureus, GC4536, S. aureus GC 4536
E. coli GC 2203 = experiment: MIC, broth microdilution; details: Escherichia coli, GC2203, E. coli GC 2203
Experimental: Antimicrobial susceptibility testing. The in vitro activities of the antibiotics are determined by the broth microdilution method as recommended by the National Committee for Clinical Laboratory Standards (NCCLS) (1). Mueller-Hinton II broth (MHBII)(BBL Cockeysville, Md.) is the medium employed in the testing procedures. Microtiter plates containing serial dilutions of each antimicrobial agent are inoculated with each organism to yield the appropriate density (10^5 CFU/ml) in a 100 μl final volume. The plates are incubated for 18-22 hours at 35° C. in ambient air. […] Standard Pharmacological Test Procedures
Presented in Tables I-XIII are representative compounds of Formula I which were evaluated against a panel of 40 selected gram-positive and gram-negative bacteria strains by pre-incubation in water, mouse serum or human serum. Representative compounds were first incubated in mouse serum for an hour prior to the in vitro testing against a panel of selected gram-positive and gram-negative bacteria strains. All compounds were also pre-incubated in water for an hour prior to testing as control. Representative compounds of Formula I were incubated in human serum prior to MIC determination.

S. aureus GC 6469 = experiment: MIC, broth microdilution; details: Staphylococcus aureus, GC6469, S. aureus GC 6469
Staph. = experiment: Range of MIC for Staph. strains, including MRSA; details: Staphylococcus aureus, MRSA
E. faecalis GC 2242 = experiment: MIC, broth microdilution; details: Enterococcus faecalis, GC2242, E. faecalis GC 2242
E. coli GC 2235 = experiment: MIC, broth microdilution; details: Escherichia coli, GC2235, E. coli GC 2235
E. coli = experiment: Range of MIC for E. coli strains; details: Escherichia coli
E. coli GC 2270 = experiment: MIC, broth microdilution; details: Escherichia coli, GC2270, E. coli GC 2270
E. coli GC 2271 = experiment: MIC, broth microdilution; details: Escherichia coli, GC2271, E. coli GC 2271
P. aeruginosa GC 2214 = experiment: MIC, broth microdilution; details: Pseudomonas aeruginosa, GC2214, P. aeruginosa GC 2214
E. faecalis GC 2265 = experiment: MIC, broth microdilution; details: Enterococcus faecalis, GC2265, E. faecalis GC 2265
E. faecalis GC 4555 = experiment: MIC, broth microdilution; details: Enterococcus faecalis, GC4555, E. faecalis GC 4555
E. coli GC 2233 = experiment: MIC, broth microdilution; details: Escherichia coli, GC2233, E. coli GC 2233
E. coli GC 4560 = experiment: MIC, broth microdilution; details: Escherichia coli, GC4560, E. coli GC 4560
E. coli GC 2236 = experiment: MIC, broth microdilution; details: Escherichia coli, GC2236, E. coli GC 2236
S. aureus GC 6467 = experiment: MIC, broth microdilution; details: Staphylococcus aureus, GC6467, S. aureus GC 6467
E. coli GC 4559 = experiment: MIC, broth microdilution; details: Escherichia coli, GC4559, E. coli GC 4559
E. coli GC 1073 = experiment: MIC, broth microdilution; details: Escherichia coli, GC1073, E. coli GC 1073
S. agalactiae GC 4564 = experiment: MIC, broth microdilution; details: Streptococcus agalactiae, GC4564, S. agalactiae GC 4564

Molecule `CCCN(CC(=O)Nc1cc(N(C)C)c2c(c1O)C(=O)C1=C(O)[C@]3(O)C(=O)C(C(N)=O)=C(O)[C@@H](N(C)C)[C@@H]3C[C@@H]1C2)C(=O)OCOC(=O)c1ccc(OC)cc1` [Example 6, ({[(2-{[(5aR,6aS,7S,10aS)-9-(aminocarbonyl)-4,7-bis(dimethylamino)-1,8,10a,11-tetrahydroxy-10,12-dioxo-5,5a,6,6a,7,10,10a,12-octahydrotetracen-2-yl]amino}-2-oxoethyl)(propyl)amino]carbonyl}oxy)methyl 4-methoxybenzoate] has an MIC (E. coli GC 6465; Mouse Serum pre-incubation) of 4 µg/mL (≈ 5.13 µM), an MIC (E. coli GC 6465; Water pre-incubation) of over 64 µg/mL and an MIC (S. aureus GC 4536; Mouse Serum pre-incubation) of 0.5 µg/mL (≈ 0.641 µM). For the same molecule, the MIC (S. aureus GC 4536; Water pre-incubation) was 2 µg/mL (≈ 2.56 µM), the MIC (E. coli GC 2203; Mouse Serum pre-incubation) was 2 µg/mL (≈ 2.56 µM) and the MIC (E. coli GC 2203; Water pre-incubation) was 16 µg/mL (≈ 20.5 µM). The MIC (S. aureus GC 6469; Mouse Serum pre-incubation) was 2 µg/mL (≈ 2.56 µM), the MIC (S. aureus GC 6469; Water pre-incubation) was 4 µg/mL (≈ 5.13 µM) and the MIC (Staph.; read-out: Range of MIC, Staph (Mouse Serum)) was 0.5 to 2 µg/mL (≈ 0.641 to 2.56 µM). It also gave an MIC (Staph.; read-out: Range of MIC, Staph (Water)) of 1 to 4 µg/mL (≈ 1.28 to 5.13 µM), an MIC (Staph.; read-out: Range of MIC, Staph. (mouse serum)) of 0.5 to 2 µg/mL (≈ 0.641 to 2.56 µM) and an MIC (Staph.; read-out: Range of MIC, Staph. (water)) of 1 to 4 µg/mL (≈ 1.28 to 5.13 µM). For the same molecule, the MIC (E. faecalis GC 2242; Mouse Serum pre-incubation) was 1 µg/mL (≈ 1.28 µM), the MIC (E. faecalis GC 2242; Water pre-incubation) was 2 µg/mL (≈ 2.56 µM) and the MIC (E. coli GC 2235; Mouse Serum pre-incubation) was 1 µg/mL (≈ 1.28 µM). It also gave an MIC (E. coli GC 2235; Water pre-incubation) of 8 µg/mL (≈ 10.3 µM), an MIC (E. coli; 20 h, read-out: Range of MIC, E. coli (Mouse Serum)) of 1 to 2 µg/mL (≈ 1.28 to 2.56 µM) and an MIC (E. coli; read-out: Range of MIC, E. coli (Water)) of 8 to 64 µg/mL (≈ 10.3 to 82.1 µM). For the same molecule, the MIC (E. coli; read-out: Range of MIC, E. coli (mouse serum)) was 1 to 2 µg/mL (≈ 1.28 to 2.56 µM), the MIC (E. coli; read-out: Range of MIC, E. coli (water)) was 8 to 64 µg/mL (≈ 10.3 to 82.1 µM) and the MIC (E. coli GC 2270; Mouse Serum pre-incubation) was 1 µg/mL (≈ 1.28 µM). For the same molecule, the MIC (E. coli GC 2270; Water pre-incubation) was 8 µg/mL (≈ 10.3 µM), the MIC (E. coli GC 2271; Mouse Serum pre-incubation) was 1 µg/mL (≈ 1.28 µM) and the MIC (E. coli GC 2271; Water pre-incubation) was 8 µg/mL (≈ 10.3 µM). The MIC (P. aeruginosa GC 2214; Mouse Serum pre-incubation) was 32 µg/mL (≈ 41 µM), the MIC (P. aeruginosa GC 2214; Water pre-incubation) was over 64 µg/mL and the MIC (E. faecalis GC 2265; Mouse Serum pre-incubation) was 2 µg/mL (≈ 2.56 µM). It also gave an MIC (E. faecalis GC 2265; Water pre-incubation) of 4 µg/mL (≈ 5.13 µM), an MIC (E. faecalis GC 4555; Mouse Serum pre-incubation) of 1 µg/mL (≈ 1.28 µM) and an MIC (E. faecalis GC 4555; Water pre-incubation) of 4 µg/mL (≈ 5.13 µM). It also gave an MIC (E. coli GC 2233; Mouse Serum pre-incubation) of 2 µg/mL (≈ 2.56 µM), an MIC (E. coli GC 2233; Water pre-incubation) of 16 µg/mL (≈ 20.5 µM) and an MIC (E. coli GC 4560; Mouse Serum pre-incubation) of 0.25 µg/mL (≈ 0.321 µM). The MIC (E. coli GC 4560; Water pre-incubation) was 2 µg/mL (≈ 2.56 µM), the MIC (E. coli GC 2236; Mouse Serum pre-incubation) was 2 µg/mL (≈ 2.56 µM) and the MIC (E. coli GC 2236; Water pre-incubation) was 8 µg/mL (≈ 10.3 µM). It also gave an MIC (S. aureus GC 6467; Mouse Serum pre-incubation) of 2 µg/mL (≈ 2.56 µM), an MIC (S. aureus GC 6467; Water pre-incubation) of 4 µg/mL (≈ 5.13 µM) and an MIC (E. coli GC 4559; Mouse Serum pre-incubation) of 2 µg/mL (≈ 2.56 µM). The MIC (E. coli GC 4559; Water pre-incubation) was 16 µg/mL (≈ 20.5 µM), the MIC (E. coli GC 1073; Mouse Serum pre-incubation) was 2 µg/mL (≈ 2.56 µM) and the MIC (E. coli GC 1073; Water pre-incubation) was 16 µg/mL (≈ 20.5 µM). For the same molecule, the MIC (S. agalactiae GC 4564; Mouse Serum pre-incubation) was 0.5 µg/mL (≈ 0.641 µM) and the MIC (S. agalactiae GC 4564; Water pre-incubation) was 0.5 µg/mL (≈ 0.641 µM).
